According to US20200386742A1, “CELL SYSTEMS USING SPHEROIDS AND METHODS OF MAKING AND USING THE SAME” (priority 2017, published 2020):

Tested on: embryonic dorsal root ganglion (DRG) explants
Assay type: cell-based

With `NC1=N[C@H](O)[C@H]2[C@H]3O[C@]4(O)O[C@@H]([C@@H](O)[C@@]2(N1)[C@@H]4O)[C@]3(O)CO` [tetrodotoxin] the “effect on electrically evoked compound action potentials (CAPs)” value was “reversibly abolished”.
